Experimental data as given in paper PMC5026937 (Antiviral research, 2016).
“Also recorded” adds a separate entry of the source.

Columns and labels:
[1] = system: A/WSN/33 (H1N1); format: cell-based
[2] = system: B/Phuket/3073/2013 (Yamagata); format: cell-based
[3] = system: B/Wisconsin/1/2010 (Yamagata); format: cell-based
[4] = system: A/California/07/2009 (H1N1); format: cell-based
[5] = system: A/Texas/04/2009 (H1N1); format: cell-based
[6] = system: A/Denmark/528/2009 (H1N1); format: cell-based
[7] = system: A/Udorn/72 (H3N2); format: cell-based
[8] = system: A/Denmark/524/2009 (H1N1); format: cell-based
[9] = system: A/Switzerland/9715293/2013 (H3N2); format: cell-based
[10] = system: B/Brisbane/60/2008 (Victoria); format: cell-based
[11] = system: A/WSN/33 (H1N1); format: cell-based, Influenza A virus
[12] = system: isomerase activity of CypA; conditions: ref Ni et al., 2009; cited from earlier work
[13] = system: clinically isolated influenza A and B viruses; format: cell-based
[14] = molecular target: A/WSN/33 (H1N1) viral polymerase activity (Influenza A virus, UniProt P15682); format: cell-based, influenza A/WSN/33 virus
Chain of A/WSN/33 (H1N1) viral polymerase activity (P15682 whole entry, looked up): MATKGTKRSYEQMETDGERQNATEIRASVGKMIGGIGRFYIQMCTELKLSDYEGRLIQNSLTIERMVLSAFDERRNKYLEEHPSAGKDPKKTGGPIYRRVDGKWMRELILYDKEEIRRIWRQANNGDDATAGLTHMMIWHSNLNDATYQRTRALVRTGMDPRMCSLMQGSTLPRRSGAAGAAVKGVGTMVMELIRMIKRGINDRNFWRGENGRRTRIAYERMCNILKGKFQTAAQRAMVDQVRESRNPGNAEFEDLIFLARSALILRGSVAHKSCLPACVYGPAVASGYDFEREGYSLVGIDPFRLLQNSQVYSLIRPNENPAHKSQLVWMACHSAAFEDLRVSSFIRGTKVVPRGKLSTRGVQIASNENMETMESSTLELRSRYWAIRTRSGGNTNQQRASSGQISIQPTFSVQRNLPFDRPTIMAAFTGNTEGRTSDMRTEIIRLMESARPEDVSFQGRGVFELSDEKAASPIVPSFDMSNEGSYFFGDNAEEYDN

| Compound | Sensitivity of influenza strain to drug [1] | Sensitivity of influenza strain to drug [2] | Sensitivity of influenza strain to drug [3] | Sensitivity of influenza strain to drug [4] | Sensitivity of influenza strain to drug [5] | Sensitivity of influenza strain to drug [6] | Sensitivity of influenza strain to drug [7] | Sensitivity of influenza strain to drug [8] | Sensitivity of influenza strain to drug [9] | Sensitivity of influenza strain to drug [10] | further results |
| --- | --- | --- | --- | --- | --- | --- | --- | --- | --- | --- | --- |
| NC12CC3CC(CC(C3)C1)C2 [Amantadine, amantadine] | R (S31N) | R | R | R (S31N) | R (S31N) | R (S31N) | S | R(S31N) | R (S31N) | R | – |
| CCC(CC)O[C@@H]1C=C(C(=O)O)C[C@H](N)[C@H]1NC(C)=O [Oseltamivir carboxylate, oseltamivir carboxylate] | S | S | S | S | R (H275Y) | R (H275Y) | S | S | S | S | antiviral effect by time of addition [11]: potent antiviral effect even when added 8 hours post initial viral infection |
| O=C(NC(=O)c1c(F)cccc1Cl)NC1c2ccccc2-c2ccccc21 [TMN355 (2)] | – | – | – | – | – | – | – | – | – | – | potency in inhibiting the isomerase activity of CypA relative to CsA (1) [12]: 27 times; effect on replication of several influenza A and B strains [13]: had no effect on the replication |
| Cc1onc(-c2ccccc2)c1C(=O)N1CCN(c2ccc([N+](=O)[O-])cc2Cl)CC1 [nucleozin (21), nucleozin] | – | – | – | – | – | – | – | – | – | – | viral polymerase activity (normalized luciferase ratio) [14]: completely inhibited the viral polymerase activity |
| Cyclosporine C [CsC (3)] | – | – | – | – | – | – | – | – | – | – | antiviral efficacy against A/WSN/33 (H1N1) compared with CsA (1) [1]: less active; also recorded: slightly less effective than CsA (1) |
